# Measurements published in patent publication US10857128B2, “Methods and compositions for treating inflammatory diseases” (Helmholtz Zentrum München Deutsches Forschungszentrum für …, priority 2017, dated 2020).
# Assays:
# [1] = system: CCL17 secretion of human Hodgkin lymphoma KM-H2 cells; assay: CCL17 secretion bioassay with KM-H2 cells (ELISA); assay type: cell-based; details: different concentrations, 24 h
# Method: Human T cell line KM-H2. The human Hodgkin lymphoma T cell line (KM-H2) was purchased from the Leibniz Institute DSMZ-German Collection of Microorganisms and Cell Cultures, Braunschweig, Germany. 3-5×10^6 KM-H2 cells were grown in 4 mL RPMI 1640 per well in 6-well-plates (Nunc, Wiesbaden, Germany). All eukaryotic cells were cultured in 5% CO2 at 37° C. (HeraCell 240 and Heraeus BDD 6220, Thermo Fisher Scientific, Waltham, USA). Viability of cells after treatment with bacterial supernatants was assessed by trypan blue, 7-AAD and CellTiter-Blue® staining. (FIG. 9A-C)
# Quantification of CCL17 and cytokines in eukaryotic cell culture supernatants. CCL17 was quantified in cell culture supernatants of KM-H2 cells using ELISA reagent Quantikine CCL17/TARC, (R&D Systems, Minneapolis, USA) according to the manufacturer's instructions (ELISA reader MRXII, Thermo Fisher Scientifc, Waltham, USA).
# Bioassays for screening for immune modulatory activity in probiotic supernatants. Two biological assays based on down-modulation of costimulatory molecules on human DCs, and of CCL17-secretion by a human Hodgkin lymphoma T cell line (KM-H2) were set up. […]
# Similarly, 200 μL supernatants were added to 3-5×10^6 KM-H2 cells for 24 h. Supernatants were collected from KM-H2 by centrifugation and stored at −80° C. until quantification of CCL17. […]
# [2] = system: allergic airway inflammation; assay: Ovalbumin-induced allergic airway inflammation (AAI) in mice with oral D-tryptophan; assay type: in vivo, Balb/c mice
# Method: Isolation of intestinal lamina propria cells. Total colons were excised from mice, removed from mesenteries, opened longitudinally and cut into 2 cm long pieces that were incubated for 30 min in 30 mM EDTA in PBS on ice and then shaken vigorously with PBS to remove epithelial cells. After further cutting into small pieces with sharp scissors these were digested at 37° C. in RMPI supplemented with 1 mg/mL collagenase D (Roche Diagnostics, Mannheim, Germany) and 10 mg/ml DNAse I (Sigma-Aldrich, St. Louis, USA). Cells were separated by a 40/80% (w/v) Percoll (GE Healthcare, Chalfont St. Giles, UK) density centrifugation step and washed prior to staining for flow cytometry analysis.
# Costimulatory molecules on human DCs. The following primary monoclonal antibodies were used: CD83 fluorescein isothiocyanate (FITC); CD1a phycoerythrin (PE); CD86-FITC; CD80-PE; CD14 allophycocyanine (APC); CD40-APC; CD3-peridinin chlorophyll protein (PerCP); HLA-DR-PerCP; mouse immunoglobulins G1 (IgG1) mouse immunoglobulins G1 (IgG1) κ were used as isotype controls using the corresponding fluorochromes (all purchased from BD Biosciences, Heidelberg, Germany). To account for donor dependent variability of DC surface markers, all data were normalized to the expression induced by LPS which was set to 100% after subtraction of background values (FACS Canto, FACS DIVA software, Version 5.0.3, BD Biosciences, Heidelberg, Germany). Murine DC subsets and CD4^+ T cells. Single cell suspensions of splenocytes were obtained by filtering spleens through a 70 μm strainer. Samples were stained with CD3-PB (1:200, Biolegend, San Diego, USA), CD4-APC-H7 (BD, 1:400), CD11c-APC-Cy7 (1:100), Mhc-II-Percp-Cy5 (1:100), CD11b-FITC (1:100), CD80-AF647, CD40-APC (1:100). For intracellular cytokines, total spleen cells were stimulated with anti-CD3 (4 μg/mL, BD Bioscience, Heidelberg, Germany) and anti-CD28 (30 ng/mL, BD Bioscience, Heidelberg, Germany) for 16 h. 1×10^6 of total lung cells were stimulated for 16 h with MACSiBead particles coated with anti-CD3 and anti-CD28 using the T cell activation/expansion kit (Miltenyi Biotec, Bergisch Gladbach, Germany) in TexMACS medium (Miltenyi Biotec) according to the manufactures recommendations. Prior to staining, cells were treated with monensin (0.7 μL/mL, BD Golgi Stop, BD Bioscience, Heidelberg, Germany) for 6 h at 37° C. and intracellularly stained for II-4-PE (1:100, eBioscience, Vienna, Austria according to the manufacturer's protocols. Intracellular staining for Foxp3 was performed by using the Foxp3/Transcription Factor Staining buffer set (eBiosciences, Vienna, Austria) according to the manufacturer's recommendations.
# Assessment of cytokines by cytometric bead array. Levels of II4, II5 and II13 were analysed in BALF and cell culture supernatants using an enhanced cytometric bead array (eCBA, Fex Set Kits, BD Biosciences, Franklin Lakes, N.J., USA) according to the manufacturer's guidelines.
# Murine regulatory T cells. Cells were preincubated with Fc-Block (BD Bioscience, Heidelberg, Germany) for 5 min and stained for 20 min with the following antibodies: FITC-conjugated anti-CD3, Alexa-Fluor700-conjugated anti-CD4 and APC-eFluor780-conjugated CD45.2. For intracellular staining, cells were fixed and permeabilized with a commercially available fixation/permeabilization buffer (eBioscience, Vienna, Austria). LIVE/DEAD fixable Aqua dead stain kit (Invitrogen, Carlsbad, USA) was used prior to fixation. Intracellular staining was performed with PerCP-Cy5.5-conjugated anti-Foxp3 and Helios. Gates were set on live CD45^+CD3^+CD4^+ T cells. All antibodies were from eBioscience (Vienna, Austria). Cells were analyzed with a flow cytometer (Fortessa and LSRII, BD Bioscience, Heidelberg, Germany) and analyzed with Flowjo software (Flowjo LLC, Ashland, USA).
# Induction of allergic airway inflammation. […]
# [3] = AAI mice, 50 mM in drinking water
smiles,measurement,setting,value
N[C@H](Cc1c[nH]c2ccccc12)C(=O)O [D-tryptophan],immune activity of synthetic tryptophan isomers in the CCL17 bioassay,[1],dose dependent immune activity
same,Helios+ Treg (lung),[2]; [3],significantly increased
same,II-4 producing T cells (lung),[2]; [3],reduced
same,Ifn-g-producing Th1 cells (lung),[2]; [3],not
same,airway hyperreactivity to methacholine,[2]; [3],improved
same,eosinophils in BALF,[2]; [3],reduction
same,total Foxp3+ cells (lung),[2]; [3],remained unchanged
same,total BALF cells,"[2]; AAI mice, 50 mM in drinking water from 3 days before sensitization",lowered
same,II-4 levels in BALF,"[2]; AAI mice, 50 mM in drinking water, (trend)",reduced
same,frequency of Foxp3+ T cells in the colon,[2]; supplemented AAI mice compared to non-supplemented AAI mice,locally increased
